Measurements: patent US20250179055A1, “Substituted 2-(pyrrolidine-3-yl)acetic acid derivative, preparation method and use thereof” (INNOVSTONE THERAPEUTICS LIMITED, priority 2023, published 2025)
pIC50: −log10 of the molar value.

The compounds below were run against Lp(a) assembly in HepG2 cells overexpressing ApoA protein (Homo sapiens (Human), UniProt P08519) (assay: ELISA assay on screening Lp(a) assembly inhibition). Details: HepG2 cells overexpressing ApoA protein, 24 h, ELISA of supernatant.
Assay type: cell-based
Protocol: Test Example 1 and Methods of ELISA Assay on Screening Lp(a) Assembly Inhibition
• 1) Preheated the culture media, DPBS, and pancreatin in a 37° C. water bath in advance. • 2) Digested cells with pancreatin, transferred the cell suspension to a 15 mL centrifuge tube, and centrifuged at 1000 rpm for 5 min. • 3) Resuspended the cells with culture media and transferred the cell suspension to a new T75 cell culture flask. • 4) Cultured at 37° C. in a 5% CO2 incubator.
• 1) Seeded HepG2 cells overexpressing of ApoA protein into a 96-well plate at 100 μL per well and incubated overnight for attachment. • 2) Replaced with fresh culture media the next day, then added diluted compounds, and cultured the cell plate in a 5% CO2, 37° C. incubator for 24 h.
• 1) Added 10 μL of 1.5 M EACA to each well. • 2) Centrifuged at 1000 rpm for 1 min, and transferred 100 μL of cell culture supernatant to a pre-coated ELISA plate.
• 1) Added 100 μL of capture antibody to each well of a pre-coated ELISA plate and incubated overnight at 25° C. • 2) Added 300 μL of washing solution to each well and washed 5 times for 1 min each time. • 3) Added 100 μL of blocking solution to each well and incubated at 25° C. for 2 h. • 4) Added 300 μL of washing solution to each well and washed 5 times for 1 min each time. • 5) Added 100 μL of sample to each well and incubated at 25° C. for 1 h. • 6) Added 300 μL of washing solution to each well and washed 5 times for 1 min each time. • 7) Added 100 μL of detection antibody to each well and incubated at 25° C. for 1 h. • 8) Added 300 μL of washing solution to each well and washed 5 times for 1 min each time. • 9) Added 100 μL substrate solution (Color Reagent A: Color Reagent B, 1:1) to each well and incubated for 20 min at 25° C. in the dark. • 10) Added […] of stop solution to each well, gently blowed and sucked several times with the pipette tip, and read within 5 min.
[formula] • X: cpd concentration • Y: inhibition % • Top and Bottom: Plateaus in same units as Y • log IC50: same log units as X • HillSlope: Slope factor or Hill slope

Sequence of Lp(a) assembly in HepG2 cells overexpressing ApoA protein (P08519 20-2040): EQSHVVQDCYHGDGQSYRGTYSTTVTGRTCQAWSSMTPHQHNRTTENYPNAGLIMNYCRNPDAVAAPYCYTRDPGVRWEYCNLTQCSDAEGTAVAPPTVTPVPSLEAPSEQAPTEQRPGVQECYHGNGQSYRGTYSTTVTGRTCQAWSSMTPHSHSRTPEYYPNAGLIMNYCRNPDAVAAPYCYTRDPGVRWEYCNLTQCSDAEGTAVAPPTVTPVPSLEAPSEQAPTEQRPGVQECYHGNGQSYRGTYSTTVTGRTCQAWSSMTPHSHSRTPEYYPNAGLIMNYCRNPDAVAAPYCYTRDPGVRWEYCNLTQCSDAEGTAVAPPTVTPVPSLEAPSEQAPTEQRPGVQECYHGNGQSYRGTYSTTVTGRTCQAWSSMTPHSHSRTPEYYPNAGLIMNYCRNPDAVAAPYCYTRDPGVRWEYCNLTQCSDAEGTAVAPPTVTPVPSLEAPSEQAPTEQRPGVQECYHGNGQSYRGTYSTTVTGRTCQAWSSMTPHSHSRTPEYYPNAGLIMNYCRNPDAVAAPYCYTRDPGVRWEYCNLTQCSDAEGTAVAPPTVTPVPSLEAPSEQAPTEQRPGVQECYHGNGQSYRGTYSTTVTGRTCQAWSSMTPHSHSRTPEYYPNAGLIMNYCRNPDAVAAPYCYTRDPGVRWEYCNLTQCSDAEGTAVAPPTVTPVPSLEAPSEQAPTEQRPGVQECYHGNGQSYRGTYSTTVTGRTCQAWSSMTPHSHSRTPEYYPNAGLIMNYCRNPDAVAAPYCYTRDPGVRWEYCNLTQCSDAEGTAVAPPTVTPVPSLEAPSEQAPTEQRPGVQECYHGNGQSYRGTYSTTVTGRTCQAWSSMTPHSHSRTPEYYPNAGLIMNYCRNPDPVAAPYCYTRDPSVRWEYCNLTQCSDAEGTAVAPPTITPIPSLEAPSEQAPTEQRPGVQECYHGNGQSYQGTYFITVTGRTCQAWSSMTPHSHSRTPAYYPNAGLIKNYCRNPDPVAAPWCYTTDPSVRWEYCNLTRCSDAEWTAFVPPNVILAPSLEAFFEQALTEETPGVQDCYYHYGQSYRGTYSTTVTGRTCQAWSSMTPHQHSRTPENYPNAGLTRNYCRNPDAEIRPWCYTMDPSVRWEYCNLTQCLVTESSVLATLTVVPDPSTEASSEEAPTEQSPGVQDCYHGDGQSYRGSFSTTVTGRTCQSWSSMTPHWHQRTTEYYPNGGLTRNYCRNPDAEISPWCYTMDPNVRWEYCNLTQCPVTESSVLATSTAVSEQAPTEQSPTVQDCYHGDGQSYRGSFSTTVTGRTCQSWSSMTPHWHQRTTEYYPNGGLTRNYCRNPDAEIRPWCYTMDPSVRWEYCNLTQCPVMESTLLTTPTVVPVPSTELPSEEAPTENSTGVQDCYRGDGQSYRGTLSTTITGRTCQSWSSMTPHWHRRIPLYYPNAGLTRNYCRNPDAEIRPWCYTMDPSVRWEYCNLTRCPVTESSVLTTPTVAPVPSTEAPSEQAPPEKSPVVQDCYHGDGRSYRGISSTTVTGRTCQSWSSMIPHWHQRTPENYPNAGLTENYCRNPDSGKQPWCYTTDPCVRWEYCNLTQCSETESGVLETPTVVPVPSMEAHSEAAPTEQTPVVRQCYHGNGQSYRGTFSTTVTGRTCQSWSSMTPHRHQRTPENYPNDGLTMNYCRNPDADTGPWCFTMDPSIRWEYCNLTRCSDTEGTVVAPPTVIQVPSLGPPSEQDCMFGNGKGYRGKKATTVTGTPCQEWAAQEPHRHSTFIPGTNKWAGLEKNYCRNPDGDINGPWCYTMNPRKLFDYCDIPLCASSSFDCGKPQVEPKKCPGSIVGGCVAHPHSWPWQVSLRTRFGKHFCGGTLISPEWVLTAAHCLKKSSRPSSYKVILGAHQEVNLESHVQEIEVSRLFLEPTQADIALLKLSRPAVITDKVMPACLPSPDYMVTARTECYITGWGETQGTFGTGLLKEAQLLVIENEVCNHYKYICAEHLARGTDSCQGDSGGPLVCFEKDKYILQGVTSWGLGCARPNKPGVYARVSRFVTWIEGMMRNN

Row | SMILES | pIC50
1 | O=C(O)[C@@H](Cc1cccc(CCN(CCOc2cccc(C[C@H](C(=O)O)[C@H]3CCNC3)c2)C(=O)c2cccc(C[C@H](C(=O)O)[C@H]3CCNC3)c2)c1)[C@H]1CCNC1 [Compound 106, (S)-3-(3-(2-(3-((S)-2-carboxy-2-((R)-pyrrolidin-3-yl)ethyl)-N-(2-(3-((S)-2-carboxy-2-((R)-pyrrolidin-3-yl)ethyl)phenoxy)ethyl)benzamido)ethyl)phenyl)-2-((R)-pyrrolidin-3-yl)propanoic acid] | 8.74
2 | O=C(O)[C@@H](Cc1cncc(CC(=O)N(CCOc2cncc(C[C@H](C(=O)O)[C@H]3CCNC3)c2)Cc2cncc(C[C@H](C(=O)O)[C@H]3CCNC3)c2)c1)[C@H]1CCNC1 [Compound 153, (S)-3-(5-(2-(2-(5-((S)-2-carboxy-2-((R)-pyrrolidin-3-yl)ethyl)pyridin-3-yl)-N-((5-((S)-2-carboxy-2-((R)-pyrrolidin-3-yl)ethyl)pyridin-3-yl)methyl)acetamido)ethoxy)pyridin-3-yl)-2-((R)-pyrrolidin-3-yl)propanoic acid] | 8.54
3 | O=C(O)[C@@H](Cc1ccc2scc(CN(Cc3csc4ccc(C[C@H](C(=O)O)[C@H]5CCNC5)cc34)Cc3csc4ccc(C[C@H](C(=O)O)[C@H]5CCNC5)cc34)c2c1)[C@H]1CCNC1 [Compound 49, (2S,2′S,2″S)-3,3′,3″-((nitrilotris(methylene))tris(benzo[b]thiophene-3,5-diyl))tris(2-((R)-pyrrolidin-3-yl)propanoic acid)] | 8.49
4 | O=C(O)[C@@H](Cc1cc2c(CN(Cc3cccc4sc(C[C@H](C(=O)O)[C@H]5CCNC5)cc34)Cc3cccc4sc(C[C@H](C(=O)O)[C@H]5CCNC5)cc34)cccc2s1)[C@H]1CCNC1 [Compound 101, (2S,2′S,2″S)-3,3′,3″-((nitrilotris(methylene))tris(benzo[b]thiophene-4,2-diyl))tris(2-((R)-pyrrolidin-3-yl)propanoic acid)] | 8.57
5 | O=C(Cc1cccc(C[C@H](C(=O)O)[C@H]2CCNC2)c1)NCCOc1cccc(C[C@H](C(=O)O)[C@H]2CCNC2)c1 [Compound 142, (S)-3-(3-(2-((2-(3-((S)-2-carboxy-2-((R)-pyrrolidin-3-yl)ethyl)phenoxy)ethyl)amino)-2-oxoethyl)phenyl)-2-((R)-pyrrolidin-3-yl)propanoic acid] | 8.50
6 | O=C(O)[C@@H](Cc1cc2ccc(CN(Cc3ccc4cc(C[C@H](C(=O)O)[C@H]5CCNC5)sc4c3)Cc3ccc4cc(C[C@H](C(=O)O)[C@H]5CCNC5)sc4c3)cc2s1)[C@H]1CCNC1 [Compound 103, (2S,2′S,2″S)-3,3′,3″-((nitrilotris(methylene))tris(benzo[b]thiophene-6,2-diyl))tris(2-((R)-pyrrolidin-3-yl)propanoic acid)] | 8.68
7 | O=C(O)[C@@H](Cc1cccc(CCN(CCc2cccc(C[C@H](C(=O)O)[C@H]3CCNC3)c2)C(=O)c2cccc(C[C@H](C(=O)O)[C@H]3CCNC3)c2)c1)[C@H]1CCNC1 [Compound 108, (2S,2′S)-3,3′-((((3-((S)-2-carboxy-2-((R)-pyrrolidin-3-yl)ethyl)benzoyl)azanediyl)bis(ethane-2,1-diyl))bis(3,1-phenylene))bis(2-((R)-pyrrolidin-3-yl)propanoic acid)] | 8.94
8 | O=C(Cc1cccc(CC(C(=O)O)C2CCNC2)c1)NCc1cccc(C[C@H](C(=O)O)[C@H]2CCNC2)c1 (stereo in doubt) [Compound 143, (S)-3-(3-(2-((3-((S)-2-carboxy-2-((R)-pyrrolidin-3-yl)ethyl)benzyl)amino)-2-oxoethyl)phenyl)-2-((R)-pyrrolidin-3-yl)propanoic acid] | 8.42
9 | O=C(O)C(Cc1cccc(C(=O)N(CCOc2cccc(C[C@H](C(=O)O)[C@H]3CCNC3)c2)Cc2cccc(C[C@H](C(=O)O)[C@H]3CCNC3)c2)c1)C1CCNC1 (stereo in doubt) [Compound 97, (S)-3-(3-((3-((S)-2-carboxy-2-((R)-pyrrolidin-3-yl)ethyl)-N-(2-(3-((S)-2-carboxy-2-((R)-pyrrolidin-3-yl)ethyl)phenoxy)ethyl)benzamido)methyl)phenyl)-2-((R)-pyrrolidin-3-yl)propanoic acid] | 8.84

Second part, the compound after the results:

Row | pIC50 | SMILES
10 | 9.03 | O=C(O)[C@@H](Cc1cccc(CC(=O)N(CCNc2cccc(C[C@H](C(=O)O)[C@H]3CCNC3)c2)Cc2cccc(C[C@H](C(=O)O)[C@H]3CCNC3)c2)c1)[C@H]1CCNC1 [Compound 146, (S)-3-(3-(2-((3-((S)-2-carboxy-2-((R)-pyrrolidin-3-yl)ethyl)benzyl)(2-((3-((S)-2-carboxy-2-((R)-pyrrolidin-3-yl)ethyl)phenyl)amino)ethyl)amino)-2-oxoethyl)phenyl)-2-((R)-pyrrolidin-3-yl)propanoic acid]
11 | 9.07 | O=C(O)[C@@H](Cc1cccc(CCN(CCc2cccc(C[C@H](C(=O)O)[C@H]3CCNC3)c2)C(=O)COc2cccc(C[C@H](C(=O)O)[C@H]3CCNC3)c2)c1)[C@H]1CCNC1 [Compound 81, (2S,2′S)-3,3′-((((2-(3-((S)-2-carboxy-2-((R)-pyrrolidin-3-yl)ethyl)phenoxy)acetyl)azanediyl)bis(ethane-2,1-diyl))bis(3,1-phenylene))bis(2-((R)-pyrrolidin-3-yl)propanoic acid)]
12 | 9.10 | O=C(O)[C@@H](Cc1cccc(CCC(=O)N(CCOc2cccc(C[C@H](C(=O)O)[C@H]3CCNC3)c2)Cc2cccc(C[C@H](C(=O)O)[C@H]3CCNC3)c2)c1)[C@H]1CCNC1 [Compound 140, (S)-3-(3-(3-((3-((S)-2-carboxy-2-((R)-pyrrolidin-3-yl)ethyl)benzyl)(2-(3-((S)-2-carboxy-2-((R)-pyrrolidin-3-yl)ethyl)phenoxy)ethyl)amino)-3-oxopropyl)phenyl)-2-((R)-pyrrolidin-3-yl)propanoic acid]
13 | 9.13 | O=C(O)[C@@H](Cc1cc(CN(Cc2cc(C[C@H](C(=O)O)[C@H]3CCNC3)cc3ccoc23)Cc2cc(C[C@H](C(=O)O)[C@H]3CCNC3)cc3ccoc23)c2occc2c1)[C@H]1CCNC1 [Compound 102, (2S,2′S,2″S)-3,3′,3″-((nitrilotris(methylene))tris(benzofuran-7,5-diyl))tris(2-((R)-pyrrolidin-3-yl)propanoic acid)]
14 | 9.15 | O=C(O)[C@@H](Cc1cccc(CN(CCOc2cccc(C[C@H](C(=O)O)[C@H]3CCNC3)c2)C(=O)COc2cccc(C[C@H](C(=O)O)[C@H]3CCNC3)c2)c1)[C@H]1CCNC1 [Compound 135, (S)-3-(3-(2-((3-((S)-2-carboxy-2-((R)-pyrrolidin-3-yl)ethyl)benzyl)(2-(3-((S)-2-carboxy-2-((R)-pyrrolidin-3-yl)ethyl)phenoxy)ethyl)amino)-2-oxoethoxy)phenyl)-2-((R)-pyrrolidin-3-yl)propanoic acid]

What follows are compounds tested on serum Lp(a) (assay: Humanized mouse Lp(a) inhibition test). Details: 5 mg/kg oral once daily for 3 days, blood 8 h after last dose, humanized Lp(a) mice.
Assay type: in vivo, humanized Lp(a) transgenic mouse
Protocol: The in vivo pharmacodynamics of the compounds in reducing Lp(a) was evaluated in a humanized Lp(a) transgenic mouse model. Lp(a) mice were obtained by crossing mice expressing humanized apoB-100 with mice expressing humanized apo(a) containing 16 Kringle repeats. Female mice aged 8-9 weeks were selected for the test. Housing conditions: standard light cycle (12 h light/12 h dark), temperature 20-25° C., humidity 40-70%, free access to water and normal diet. is One day before the test, mice were divided into vehicle control group and test article group (n=5/group) according to body weight and baseline plasma Lp(a) concentration. Mice were orally administered with vehicle (normal saline, 10 mL/kg) or test compound (prepared with normal saline to 3 or 0.5 mg/mL, each mouse received 10 mL/kg), once daily (9:00 am) for 3 consecutive days, and blood was collected to determine the change of serum Lp(a). Eight hours after the last dose, 10 μL of blood was collected from the tail vein and transferred to a 1.5 mL centrifuge tube containing 90 μL of normal saline, mixed well, and left to stand on ice for 30 min. The above samples were centrifuged at 4° C., 3000 rpm for 10 min, and the supernatant was collected and placed on ice. The Lp(a) concentration in the supernatant was measured by double-antibody sandwich ELISA using an anti-apo(a) capture antibody and an HRP-conjugated anti-ApoB detection antibody, with TMB for color development. The reaction was stopped with 1 N sulfuric acid, and the OD value was read at 450 nm on a Tecan microplate reader. Inhibition rate was calculated for each dosing group. Inhibition rate (%)=(vehicle control group Lp(a) concentration or self pre-dose Lp(a) concentration post-dose Lp(a) concentration)/vehicle control group Lp(a) concentration or self pre-dose Lp(a) concentration*100.

Row | SMILES | Lp(a) Inhibition Rate [%]
15 | O=C(O)[C@@H](Cc1cccc(OCCN(Cc2cc(C[C@H](C(=O)O)[C@H]3CCNC3)cs2)C(=O)Cc2cc(C[C@H](C(=O)O)[C@H]3CCNC3)cs2)c1)[C@H]1CCNC1 [Compound 180, (S)-3-(5-(2-((2-(3-((S)-2-carboxy-2-((R)-pyrrolidin-3-yl)ethyl)phenoxy)ethyl)((4-((S)-2-carboxy-2-((R)-pyrrolidin-3-yl)ethyl)thiophen-2-yl)methyl)amino)-2-oxoethyl)thiophen-3-yl)-2-((R)-pyrrolidin-3-yl)propanoic acid] | 80
